Reference: patent US20250152661A1, “NOVEL COMBINATION TREATMENT REGIMEN OF BACTERIAL INFECTIONS” (BONE SUPPORT AB, priority 2022, published 2025)
In brackets after ≈: the same amount, converted by molar mass. Read-outs that look alike come from different tables or passages of the source.

Key:
[1] = system: S. aureus clinical strain P-3; assay: MIC values predetermined using MALDI-TOF MS system (Vitek MS); format: cell-based, Staphylococcus aureus
S. aureus ATCC 25923 = assay: as above; format: cell-based, Staphylococcus aureus

Molecule: CO[C@H]1/C=C/O[C@@]2(C)Oc3c(C)c(O)c4c(O)c(c(/C=N/N5CCN(C)CC5)c(O)c4c3C2=O)NC(=O)/C(C)=C\C=C\[C@H](C)[C@H](O)[C@@H](C)[C@@H](O)[C@@H](C)[C@H](OC(C)=O)[C@@H]1C [RIF, rifampicin]
- MIC ([1]; Staphylococcus aureus, S. aureus clinical strain P-3, read-out: MIC): 0.008 µg/mL (≈ 0.00972 µM)
- MIC (S. aureus ATCC 25923; Staphylococcus aureus, ATCC25923, S. aureus ATCC 25923, read-out: MIC): 0.008 µg/mL (≈ 0.00972 µM)

Molecule: CN[C@H](CC(C)C)C(=O)N[C@H]1C(=O)N[C@@H](CC(N)=O)C(=O)N[C@H]2C(=O)N[C@H]3C(=O)N[C@H](C(=O)N[C@H](C(=O)O)c4cc(O)cc(O)c4-c4cc3ccc4O)[C@H](O)c3ccc(c(Cl)c3)Oc3cc2cc(c3O[C@@H]2O[C@H](CO)[C@@H](O)[C@H](O)[C@H]2O[C@H]2C[C@](C)(N)[C@H](O)[C@H](C)O2)Oc2ccc(cc2Cl)[C@H]1O [VAN, Vancomycin]
- MIC ([1]; Staphylococcus aureus): 1 µg/mL (≈ 0.69 µM)
- MIC (S. aureus ATCC 25923; Staphylococcus aureus, ATCC25923): 2 µg/mL (≈ 1.38 µM)

Molecule: gentamicin
- MIC ([1]; S. aureus clinical strain P-3): 0.5 µg/mL
- MIC (S. aureus ATCC 25923; S. aureus ATCC 25923): 0.064 µg/mL
